Data taken from ChEMBL document CHEMBL4507256 (2021).

Key:
[1] = molecular target: Calcium/calmodulin-dependent protein kinase kinase 1 (Homo sapiens) (UniProt Q8N5S9); conditions: Compound concentration 1000.0 nM
[2] = molecular target: Dual specificity mitogen-activated protein kinase kinase 6 (Homo sapiens) (UniProt P52564); conditions: Compound concentration 1000.0 nM
[3] = molecular target: Misshapen-like kinase 1 (Homo sapiens) (UniProt Q8N4C8); conditions: Compound concentration 1000.0 nM
[4] = molecular target: T1, D(4) dopamine receptor (Homo sapiens) (UniProt P21917); assay: D4.4 (h) CEREP ligand profiling; conditions: Compound concentration 10.0 uM
T1 sequence (whole entry): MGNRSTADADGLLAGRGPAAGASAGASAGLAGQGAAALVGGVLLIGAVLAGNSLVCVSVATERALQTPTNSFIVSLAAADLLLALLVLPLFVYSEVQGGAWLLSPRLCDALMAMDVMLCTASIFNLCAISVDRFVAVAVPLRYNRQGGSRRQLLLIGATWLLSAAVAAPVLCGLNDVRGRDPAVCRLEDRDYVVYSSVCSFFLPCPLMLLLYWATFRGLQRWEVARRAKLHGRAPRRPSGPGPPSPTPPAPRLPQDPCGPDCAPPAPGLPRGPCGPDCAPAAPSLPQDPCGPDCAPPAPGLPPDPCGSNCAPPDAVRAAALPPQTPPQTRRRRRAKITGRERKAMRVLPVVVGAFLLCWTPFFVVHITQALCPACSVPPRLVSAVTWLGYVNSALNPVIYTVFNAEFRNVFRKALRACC

[5] = molecular target: C-C chemokine receptor type 1 (Homo sapiens) (UniProt P32246); assay: CCR1 (h) CEREP ligand profiling; conditions: Compound concentration 10.0 uM
[6] = molecular target: 5-hydroxytryptamine receptor 1B (Homo sapiens) (UniProt P28222); assay: 5-HT1B CEREP ligand profiling; conditions: Compound concentration 10.0 uM
Sequence of 5-hydroxytryptamine receptor 1B (Homo sapiens) (P28222 whole entry): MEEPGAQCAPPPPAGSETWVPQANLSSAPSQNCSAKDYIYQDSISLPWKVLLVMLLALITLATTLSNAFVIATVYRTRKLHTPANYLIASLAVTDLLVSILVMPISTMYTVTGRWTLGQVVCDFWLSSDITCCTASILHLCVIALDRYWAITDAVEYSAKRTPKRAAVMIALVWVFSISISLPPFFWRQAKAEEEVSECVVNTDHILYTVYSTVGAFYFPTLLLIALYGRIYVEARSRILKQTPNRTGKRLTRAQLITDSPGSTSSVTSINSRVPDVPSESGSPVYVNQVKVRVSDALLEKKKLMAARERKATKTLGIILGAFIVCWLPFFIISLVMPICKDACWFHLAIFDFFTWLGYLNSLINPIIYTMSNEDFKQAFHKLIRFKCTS

Sequence of Dual specificity mitogen-activated protein kinase kinase 6 (Homo sapiens) (P52564 whole entry): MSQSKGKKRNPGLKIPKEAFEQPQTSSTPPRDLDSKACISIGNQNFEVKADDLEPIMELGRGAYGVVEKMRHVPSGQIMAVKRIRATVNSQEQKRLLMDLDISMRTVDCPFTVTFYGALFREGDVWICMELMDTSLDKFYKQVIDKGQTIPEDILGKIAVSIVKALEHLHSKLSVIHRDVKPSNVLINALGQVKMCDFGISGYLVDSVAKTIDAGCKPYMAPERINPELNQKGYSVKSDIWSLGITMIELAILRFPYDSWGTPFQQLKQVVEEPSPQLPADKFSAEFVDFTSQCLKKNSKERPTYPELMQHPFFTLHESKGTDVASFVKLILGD
Sequence of Misshapen-like kinase 1 (Homo sapiens) (Q8N4C8 whole entry, looked up): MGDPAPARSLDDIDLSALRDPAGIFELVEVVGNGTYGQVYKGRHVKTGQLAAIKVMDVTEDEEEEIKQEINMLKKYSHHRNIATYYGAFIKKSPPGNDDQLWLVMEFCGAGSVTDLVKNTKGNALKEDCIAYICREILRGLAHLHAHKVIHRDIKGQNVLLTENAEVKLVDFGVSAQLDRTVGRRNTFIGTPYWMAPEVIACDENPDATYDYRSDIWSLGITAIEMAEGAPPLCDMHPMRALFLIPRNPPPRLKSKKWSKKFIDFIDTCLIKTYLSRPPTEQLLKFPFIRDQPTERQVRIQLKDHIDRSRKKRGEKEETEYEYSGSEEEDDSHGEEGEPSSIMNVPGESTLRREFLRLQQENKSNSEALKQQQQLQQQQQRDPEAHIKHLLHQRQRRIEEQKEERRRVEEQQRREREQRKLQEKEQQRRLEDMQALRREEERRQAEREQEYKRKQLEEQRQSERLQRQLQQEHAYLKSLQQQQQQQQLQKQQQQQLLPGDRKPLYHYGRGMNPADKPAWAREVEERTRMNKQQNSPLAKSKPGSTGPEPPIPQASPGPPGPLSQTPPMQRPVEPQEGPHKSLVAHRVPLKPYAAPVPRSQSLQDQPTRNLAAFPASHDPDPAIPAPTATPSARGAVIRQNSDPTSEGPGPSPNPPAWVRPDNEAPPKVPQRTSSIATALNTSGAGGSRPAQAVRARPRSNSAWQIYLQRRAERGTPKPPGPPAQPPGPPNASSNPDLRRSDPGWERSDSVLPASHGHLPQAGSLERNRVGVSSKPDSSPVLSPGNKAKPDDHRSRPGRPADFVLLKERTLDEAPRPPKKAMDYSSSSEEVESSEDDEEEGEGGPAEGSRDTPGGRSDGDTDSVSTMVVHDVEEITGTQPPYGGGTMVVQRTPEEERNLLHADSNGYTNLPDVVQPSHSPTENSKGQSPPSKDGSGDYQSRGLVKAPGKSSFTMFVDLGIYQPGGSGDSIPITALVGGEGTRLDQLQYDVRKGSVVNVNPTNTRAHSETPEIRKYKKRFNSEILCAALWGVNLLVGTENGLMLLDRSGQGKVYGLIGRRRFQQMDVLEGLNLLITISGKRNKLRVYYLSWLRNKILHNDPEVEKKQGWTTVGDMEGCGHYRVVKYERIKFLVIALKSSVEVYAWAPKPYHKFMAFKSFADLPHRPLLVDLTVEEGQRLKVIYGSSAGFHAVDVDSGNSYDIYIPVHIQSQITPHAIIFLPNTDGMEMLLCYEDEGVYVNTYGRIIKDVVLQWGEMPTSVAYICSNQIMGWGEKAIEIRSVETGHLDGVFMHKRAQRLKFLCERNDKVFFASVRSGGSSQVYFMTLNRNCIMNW
Sequence of C-C chemokine receptor type 1 (Homo sapiens) (P32246 whole entry): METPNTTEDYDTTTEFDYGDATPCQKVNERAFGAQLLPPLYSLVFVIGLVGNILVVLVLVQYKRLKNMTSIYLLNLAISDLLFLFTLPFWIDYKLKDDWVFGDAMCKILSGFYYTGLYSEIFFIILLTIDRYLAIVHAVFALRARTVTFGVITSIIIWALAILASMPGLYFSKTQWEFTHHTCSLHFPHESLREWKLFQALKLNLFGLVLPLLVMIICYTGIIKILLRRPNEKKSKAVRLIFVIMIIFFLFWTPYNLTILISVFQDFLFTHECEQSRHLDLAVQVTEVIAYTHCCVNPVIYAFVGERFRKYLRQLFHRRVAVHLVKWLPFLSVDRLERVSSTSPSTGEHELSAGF
Sequence of Calcium/calmodulin-dependent protein kinase kinase 1 (Homo sapiens) (Q8N5S9 whole entry, looked up): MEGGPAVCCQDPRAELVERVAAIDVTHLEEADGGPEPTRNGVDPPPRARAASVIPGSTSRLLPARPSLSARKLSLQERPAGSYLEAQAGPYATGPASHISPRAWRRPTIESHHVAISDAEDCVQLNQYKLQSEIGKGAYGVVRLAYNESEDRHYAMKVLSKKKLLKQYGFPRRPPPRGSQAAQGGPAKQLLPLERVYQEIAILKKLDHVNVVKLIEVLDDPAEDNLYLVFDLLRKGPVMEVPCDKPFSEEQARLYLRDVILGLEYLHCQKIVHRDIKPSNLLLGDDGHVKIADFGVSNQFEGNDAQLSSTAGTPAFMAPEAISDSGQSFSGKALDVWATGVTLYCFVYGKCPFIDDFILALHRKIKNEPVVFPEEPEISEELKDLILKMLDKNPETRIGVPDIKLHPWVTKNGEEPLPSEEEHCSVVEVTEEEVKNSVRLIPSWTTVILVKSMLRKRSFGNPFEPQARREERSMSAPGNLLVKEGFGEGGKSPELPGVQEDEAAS

CCC(=N\O)/C(C)=C/c1ccc(F)c(C)c1 [A-226]
inactive: residual activity [1] 100% | residual activity [2] 100% | residual activity [3] 92%

CCC(=N\O)/C(C)=C/c1ccc(F)cc1 [A-079]
inactive: inhibition [4] 4% | inhibition [5] 1% | inhibition [6] 14%
